Laboratory results: patent publication US9289607B2, “Urgency therapy with neuromodulation and C-afferent nerve desensitization” (MEDTRONIC, INC., priority 2010, dated 2016)

Legend:
Type in all cases: in vivo, Sprague-Dawley rats
[1] = Behaviour after subcutaneous capsaicin injection
Method: (§1) Thirty-two rats were chronically treated with capsaicin or vehicle (e.g., solution without capsaicin added). Capsaicin (Sigma-Aldrich, St. Louis, Mo.) was administered to the rats in a vehicle solution containing approximately 20 milligrams (mg)/milliliters (mL) capsaicin in a mixture of approximately 10% ethanol, approximately 10% Tween 80 and approximately 80% physiological saline. For each of the rats, capsaicin (125 mg/kg) was given subcutaneously in the hindlimb in divided doses on 2 consecutive days: on the first day, a first dose of 25 mg/kg was administered, and, twelve hours later, a second dose of 50 mg/kg was administered, and on the second day, a third dose of 50 mg/kg was administered. Injections were performed under isoflurane anesthesia. Control rats received a corresponding volume of vehicles. Experiments on the effect of neurostimulation on rhythmic bladder contraction were conducted approximately 4 days after injection of the third dose was administered. To evaluate the effectiveness of capsaicin pretreatment, an eye wipe test was performed on each unanesthetized animal just before the experiment. A drop of approximately 100 microgram per milliliter (μg/mL) capsaicin solution was instilled into an eye of the animal and the number of defensive wiping movements was counted. […]

[2] = Eye wipe test of capsaicin pretreatment effectiveness; conditions: drop of 100 μg/mL capsaicin solution in eye; rats pretreated with capsaicin 125 mg/kg s.c.; 16 rats
Method: as §1

[3] = tested on: bladder rhythmic contraction; assay: Bladder rhythmic contraction with L6 spinal nerve stimulation after capsaicin pretreatment
Method: Female Sprague-Dawley rats weighing approximately 200-300 grams (g) were anesthetized with urethane (in particular, two injections, approximately 4 min apart, total 1.2 g urethane/kilogram (kg) rat). The anesthetized rats were maintained with a hot-water-circulating heating pad during the studies.
To record bladder contractions, a polyethylene cannula (IntraMedic PE50 tubing, Stoelting Co., Wood Dale, Ill.), was placed into the bladder of each of the rats via the urethra and the urethra was ligated to ensure an isovolumetric bladder. The urethral cannula was connected with a T connector and linked with a low volume transducer (ADInstrument MLT0380/D, Colorado Springs, Colo.). The signal was amplified through a DC amplifier (ADInstrument, ML119, Colorado Springs, Colo.). The other end of the T connector was linked to a 20 cubic centimeters (cc) syringe with a perfusion pump.
To deliver electrical stimulation, a wire electrode was placed under the L6 spinal nerves of each of the rats bilaterally. The dorsal skin around sacral and thoracic surface was shaved and a dorsal midline incision was made from approximately spinal nerve L3 to S2. A combination of sharp and blunt dissection was used to expose the left L6/S1 posterior interarticular process. The S1 transverse process was visualized and removed, and the L6 nerves were located caudal and medial to the sacroiliac junction and were then exposed distal to their emergence from the intervertebral foramina. Two bared portions of a teflon-coated, 40-gauge, stainless steel wire (Cooner Wire Co., Chatsworth, Calif.) were placed bilaterally under each of the L6 nerve. A silicone adhesive (Kwik-Cast, World Precision Instruments, Inc, Sarasota, Fla.) was applied to cover the wire around the nerve. The muscle and incision were closed with silk suture. The wire electrode and a needle electrode under the skin of the tail served as the stimulating cathode and the indifferent anode, respectively.
Biphasic pulses having a pulse width of about 0.1 ms and different intensities were used to stimulate the spinal nerve at frequencies ranging from 0.01 Hz to 100 Hz. A Grass S88 stimulator (Grass Technologies, West Warwick, R.I.) with an SIU5 stimulus isolator (Grass Technologies, West Warwick, R.I.) was used to generate stimulus pulses. Electrical stimulation of spinal nerves with pulses of sufficient intensity evoked hind-toe twitches and pelvic floor muscle contractions. In each rat, the motor threshold, defined by the lowest intensity to evoke any of those muscle contractions was tested. The rats with motor threshold over 0.4 mA were excluded from the study. The intensities of stimulation were given either at 0.6 mA or threshold intensity, which was adjusted until the muscle contraction was just discernible in each animal.
as §1, with “experiment.” for “experiment. A drop of approximately 100 microgram per milliliter (μg/mL) capsaicin solution was instilled into an eye of the animal and the number of defensive wiping movements was counted.”

[4] = capsaicin 125 mg/kg s.c. pretreatment 4 days before, mean control before stimulation, 8 rats, mean±SEM
[5] = capsaicin 125 mg/kg s.c. pretreatment, stimulation approximately 0.6 mA, 0.5 Hz

Question: Which aversive behaviours thereafter ([1]; after the first 3-4 hours, capsaicin 125 mg/kg s.c. in divided doses over 2 days) does the source give for `COc1cc(CNC(=O)CCCC/C=C/C(C)C)ccc1O` [capsaicin, Capsaicin] here?
Answer: no aversive behaviors were observed

Question: And the “behaviour following the first capsaicin injection” value ([1]; approximately 3-4 hours after first capsaicin injection (25 mg/kg s.c., hindlimb))?
Answer: signs of pain behaviors

Question: What about the “reaction in the eye wipe test (defensive wiping movements)” value [2] of the same molecule?
Answer: no reaction

Question: And the “average amplitude of bladder contractions prior to neurostimulation” value [3, 4]?
Answer: approximately 19.24±1.89 mmHg

Question: What about the “mean frequency of bladder contractions prior to neurostimulation” value [3, 4] of the same molecule?
Answer: approximately 3.19±0.20 contractions per 5 minutes

Question: And the “persistence of inhibition after stimulation was terminated (FIG. 12A)” value [3, 5]?
Answer: more than 20 minutes

Question: And the “rhythmic bladder contractions during spinal nerve stimulation (FIG. 12A)” value [3, 5]?
Answer: substantially completely inhibited

Question: And the “bladder contractions with spinal nerve stimulation at threshold intensity (FIG. 12B)” value ([3]; capsaicin 125 mg/kg s.c. pretreatment, threshold intensity about 0.01 mA, about 10 Hz, particularly after termination of stimulation)?
Answer: attenuated bladder contractions

Question: And the “frequency of the bladder rhythmic contraction” value ([3]; capsaicin approximately 125 mg/kg s.c. pretreatment, stimulation approximately 0.6 mA, six rats, p<0.05 vs vehicle pretreated, two-way ANOVA (FIG. 13A))?
Answer: 18±14 % of control

Question: And the “mean frequency and amplitude of bladder contractions, capsaicin-treated versus vehicle-treated rats” value ([3]; prior to delivery of neurostimulation)?
Answer: did not differ

Question: And the “effect on bladder rhythmic contraction of stimulation at threshold intensity (FIG. 13B)” value ([3]; threshold intensity approximately 0.01 mA, believed not statistically significant)?
Answer: trend of inhibitory effects
